Assay results from ChEMBL document CHEMBL1147982, “Structure, inhibitor, and regulatory mechanism of Lyp, a lymphoid-specific tyrosine phosphatase implicated in autoimmune diseases” (Proc Natl Acad Sci U S A, 2007).
Active and inactive are the calls of the source. No cut-off for these calls is given here.

What was measured:
[1] = target: Tyrosine-protein phosphatase non-receptor type 13 (Homo sapiens, UniProt Q12923); assay: Inhibition of FAP1
[2] = target: Dual specificity protein phosphatase 3 (Homo sapiens, UniProt P51452); assay: Inhibition of VHR
[3] = target: T1, Receptor-type tyrosine-protein phosphatase C (Homo sapiens, UniProt P08575); assay: Inhibition of CD45
T1 sequence (P08575 whole entry): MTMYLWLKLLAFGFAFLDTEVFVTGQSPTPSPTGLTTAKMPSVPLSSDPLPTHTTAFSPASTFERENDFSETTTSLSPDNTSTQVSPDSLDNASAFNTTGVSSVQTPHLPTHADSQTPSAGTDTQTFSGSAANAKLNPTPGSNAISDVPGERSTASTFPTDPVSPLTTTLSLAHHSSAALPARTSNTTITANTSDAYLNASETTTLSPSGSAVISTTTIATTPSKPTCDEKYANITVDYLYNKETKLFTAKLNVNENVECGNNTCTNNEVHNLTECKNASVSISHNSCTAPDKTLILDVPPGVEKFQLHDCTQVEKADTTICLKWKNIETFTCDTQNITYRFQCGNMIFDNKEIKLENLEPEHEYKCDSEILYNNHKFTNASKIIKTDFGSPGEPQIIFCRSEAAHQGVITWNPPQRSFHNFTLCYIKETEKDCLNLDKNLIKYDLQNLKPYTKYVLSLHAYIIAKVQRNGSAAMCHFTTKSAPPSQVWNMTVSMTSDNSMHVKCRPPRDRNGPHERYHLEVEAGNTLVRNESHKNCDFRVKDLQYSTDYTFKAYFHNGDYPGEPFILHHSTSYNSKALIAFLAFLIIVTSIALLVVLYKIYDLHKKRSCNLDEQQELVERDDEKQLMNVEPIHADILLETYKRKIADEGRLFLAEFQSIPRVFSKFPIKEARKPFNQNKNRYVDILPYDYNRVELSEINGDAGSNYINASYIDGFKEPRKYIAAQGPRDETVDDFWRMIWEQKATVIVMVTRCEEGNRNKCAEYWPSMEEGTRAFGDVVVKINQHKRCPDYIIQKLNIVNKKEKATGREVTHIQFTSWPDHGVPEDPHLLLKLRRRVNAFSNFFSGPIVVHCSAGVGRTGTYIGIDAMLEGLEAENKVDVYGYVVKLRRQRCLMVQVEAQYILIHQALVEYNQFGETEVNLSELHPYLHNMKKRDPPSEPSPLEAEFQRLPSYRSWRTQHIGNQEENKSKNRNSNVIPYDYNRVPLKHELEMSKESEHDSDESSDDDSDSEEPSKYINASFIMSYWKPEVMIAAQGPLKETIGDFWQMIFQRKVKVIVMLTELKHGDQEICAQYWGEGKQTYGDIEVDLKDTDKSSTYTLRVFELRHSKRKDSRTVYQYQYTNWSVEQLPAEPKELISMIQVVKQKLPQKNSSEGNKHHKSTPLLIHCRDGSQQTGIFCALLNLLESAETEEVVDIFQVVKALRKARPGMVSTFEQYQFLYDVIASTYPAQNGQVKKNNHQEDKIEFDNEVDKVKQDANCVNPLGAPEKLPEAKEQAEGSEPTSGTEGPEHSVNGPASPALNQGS

[4] = target: Receptor-type tyrosine-protein phosphatase F (Homo sapiens) (UniProt P10586); assay: Inhibition of LAR at 100 uM
[5] = target: Receptor-type tyrosine-protein phosphatase alpha (Homo sapiens) (UniProt P18433); assay: Inhibition of PTPalpha at 100 uM
[6] = Inhibition of lymphoid-specific tyrosine phosphatase pLyp35 mutant
[7] = target: T2, Tyrosine-protein phosphatase non-receptor type 1 (Homo sapiens, UniProt P18031); assay: Inhibition of PTP1B
T2 sequence (P18031 whole entry): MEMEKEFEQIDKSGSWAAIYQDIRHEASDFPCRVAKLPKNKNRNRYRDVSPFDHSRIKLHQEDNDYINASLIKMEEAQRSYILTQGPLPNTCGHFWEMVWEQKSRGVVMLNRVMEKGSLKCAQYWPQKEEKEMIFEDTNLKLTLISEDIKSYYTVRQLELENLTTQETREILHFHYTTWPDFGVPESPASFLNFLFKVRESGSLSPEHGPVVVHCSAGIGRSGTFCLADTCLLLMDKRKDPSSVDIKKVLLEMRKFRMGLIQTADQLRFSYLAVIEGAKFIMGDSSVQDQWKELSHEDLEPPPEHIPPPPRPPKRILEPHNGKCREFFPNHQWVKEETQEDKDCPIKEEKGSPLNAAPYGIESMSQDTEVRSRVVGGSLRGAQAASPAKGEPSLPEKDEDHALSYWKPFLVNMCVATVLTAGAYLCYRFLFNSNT

[8] = target: T3, Tyrosine-protein phosphatase non-receptor type 11 (Homo sapiens, UniProt Q06124); assay: Inhibition of SHP2
T3 sequence (Q06124 whole entry): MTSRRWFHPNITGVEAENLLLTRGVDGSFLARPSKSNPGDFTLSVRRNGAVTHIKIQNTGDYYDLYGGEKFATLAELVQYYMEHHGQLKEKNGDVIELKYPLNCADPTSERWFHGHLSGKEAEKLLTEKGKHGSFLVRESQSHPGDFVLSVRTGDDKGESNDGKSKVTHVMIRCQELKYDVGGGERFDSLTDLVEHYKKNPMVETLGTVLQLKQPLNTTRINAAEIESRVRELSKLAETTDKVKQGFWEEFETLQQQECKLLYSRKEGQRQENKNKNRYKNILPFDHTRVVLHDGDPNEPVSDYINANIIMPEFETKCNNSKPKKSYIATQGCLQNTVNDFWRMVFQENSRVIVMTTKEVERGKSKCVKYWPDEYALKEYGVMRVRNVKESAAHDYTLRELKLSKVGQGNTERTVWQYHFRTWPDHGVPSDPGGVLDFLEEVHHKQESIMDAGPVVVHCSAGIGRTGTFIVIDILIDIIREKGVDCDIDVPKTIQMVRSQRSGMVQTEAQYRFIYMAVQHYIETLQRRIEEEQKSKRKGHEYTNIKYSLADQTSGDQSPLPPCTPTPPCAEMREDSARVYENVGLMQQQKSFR

[9] = target: T4, Tyrosine-protein phosphatase non-receptor type 7 (Homo sapiens, UniProt P35236); assay: Inhibition of HePTP
T4 sequence (P35236 whole entry): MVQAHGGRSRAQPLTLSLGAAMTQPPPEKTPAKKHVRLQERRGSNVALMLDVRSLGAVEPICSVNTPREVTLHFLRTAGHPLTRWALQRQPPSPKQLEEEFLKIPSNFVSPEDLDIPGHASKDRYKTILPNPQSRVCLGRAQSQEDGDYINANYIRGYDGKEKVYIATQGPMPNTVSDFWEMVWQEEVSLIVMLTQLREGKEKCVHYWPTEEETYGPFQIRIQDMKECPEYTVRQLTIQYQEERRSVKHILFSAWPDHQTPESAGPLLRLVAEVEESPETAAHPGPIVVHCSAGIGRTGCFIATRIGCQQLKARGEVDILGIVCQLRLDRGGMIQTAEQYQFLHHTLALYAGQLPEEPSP

[10] = target: T5, Tyrosine-protein phosphatase non-receptor type 9 (Homo sapiens, UniProt P43378); assay: Inhibition of PTP-Meg2
T5 sequence (P43378 whole entry): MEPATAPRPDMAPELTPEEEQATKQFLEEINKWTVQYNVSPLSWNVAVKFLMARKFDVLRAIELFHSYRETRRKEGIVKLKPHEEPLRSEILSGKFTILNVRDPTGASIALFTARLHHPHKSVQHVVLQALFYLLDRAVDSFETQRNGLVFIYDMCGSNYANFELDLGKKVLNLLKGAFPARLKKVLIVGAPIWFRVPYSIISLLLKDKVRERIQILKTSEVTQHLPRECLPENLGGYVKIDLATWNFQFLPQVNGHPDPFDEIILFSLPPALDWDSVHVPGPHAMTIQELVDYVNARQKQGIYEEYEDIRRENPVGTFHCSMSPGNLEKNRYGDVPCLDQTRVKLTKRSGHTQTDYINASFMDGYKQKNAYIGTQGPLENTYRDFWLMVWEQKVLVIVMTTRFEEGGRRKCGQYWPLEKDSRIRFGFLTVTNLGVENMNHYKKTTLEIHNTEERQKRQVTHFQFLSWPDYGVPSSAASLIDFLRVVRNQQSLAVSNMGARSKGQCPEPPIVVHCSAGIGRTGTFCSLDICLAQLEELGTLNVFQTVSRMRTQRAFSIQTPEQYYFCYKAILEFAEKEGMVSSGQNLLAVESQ

Sequence of Dual specificity protein phosphatase 3 (P51452 whole entry): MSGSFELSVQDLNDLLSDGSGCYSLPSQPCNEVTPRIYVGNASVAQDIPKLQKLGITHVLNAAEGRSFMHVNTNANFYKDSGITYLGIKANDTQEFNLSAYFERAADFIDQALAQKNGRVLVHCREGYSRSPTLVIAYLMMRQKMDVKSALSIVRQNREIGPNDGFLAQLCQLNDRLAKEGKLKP
Sequence of Receptor-type tyrosine-protein phosphatase F (Homo sapiens) (P10586 whole entry): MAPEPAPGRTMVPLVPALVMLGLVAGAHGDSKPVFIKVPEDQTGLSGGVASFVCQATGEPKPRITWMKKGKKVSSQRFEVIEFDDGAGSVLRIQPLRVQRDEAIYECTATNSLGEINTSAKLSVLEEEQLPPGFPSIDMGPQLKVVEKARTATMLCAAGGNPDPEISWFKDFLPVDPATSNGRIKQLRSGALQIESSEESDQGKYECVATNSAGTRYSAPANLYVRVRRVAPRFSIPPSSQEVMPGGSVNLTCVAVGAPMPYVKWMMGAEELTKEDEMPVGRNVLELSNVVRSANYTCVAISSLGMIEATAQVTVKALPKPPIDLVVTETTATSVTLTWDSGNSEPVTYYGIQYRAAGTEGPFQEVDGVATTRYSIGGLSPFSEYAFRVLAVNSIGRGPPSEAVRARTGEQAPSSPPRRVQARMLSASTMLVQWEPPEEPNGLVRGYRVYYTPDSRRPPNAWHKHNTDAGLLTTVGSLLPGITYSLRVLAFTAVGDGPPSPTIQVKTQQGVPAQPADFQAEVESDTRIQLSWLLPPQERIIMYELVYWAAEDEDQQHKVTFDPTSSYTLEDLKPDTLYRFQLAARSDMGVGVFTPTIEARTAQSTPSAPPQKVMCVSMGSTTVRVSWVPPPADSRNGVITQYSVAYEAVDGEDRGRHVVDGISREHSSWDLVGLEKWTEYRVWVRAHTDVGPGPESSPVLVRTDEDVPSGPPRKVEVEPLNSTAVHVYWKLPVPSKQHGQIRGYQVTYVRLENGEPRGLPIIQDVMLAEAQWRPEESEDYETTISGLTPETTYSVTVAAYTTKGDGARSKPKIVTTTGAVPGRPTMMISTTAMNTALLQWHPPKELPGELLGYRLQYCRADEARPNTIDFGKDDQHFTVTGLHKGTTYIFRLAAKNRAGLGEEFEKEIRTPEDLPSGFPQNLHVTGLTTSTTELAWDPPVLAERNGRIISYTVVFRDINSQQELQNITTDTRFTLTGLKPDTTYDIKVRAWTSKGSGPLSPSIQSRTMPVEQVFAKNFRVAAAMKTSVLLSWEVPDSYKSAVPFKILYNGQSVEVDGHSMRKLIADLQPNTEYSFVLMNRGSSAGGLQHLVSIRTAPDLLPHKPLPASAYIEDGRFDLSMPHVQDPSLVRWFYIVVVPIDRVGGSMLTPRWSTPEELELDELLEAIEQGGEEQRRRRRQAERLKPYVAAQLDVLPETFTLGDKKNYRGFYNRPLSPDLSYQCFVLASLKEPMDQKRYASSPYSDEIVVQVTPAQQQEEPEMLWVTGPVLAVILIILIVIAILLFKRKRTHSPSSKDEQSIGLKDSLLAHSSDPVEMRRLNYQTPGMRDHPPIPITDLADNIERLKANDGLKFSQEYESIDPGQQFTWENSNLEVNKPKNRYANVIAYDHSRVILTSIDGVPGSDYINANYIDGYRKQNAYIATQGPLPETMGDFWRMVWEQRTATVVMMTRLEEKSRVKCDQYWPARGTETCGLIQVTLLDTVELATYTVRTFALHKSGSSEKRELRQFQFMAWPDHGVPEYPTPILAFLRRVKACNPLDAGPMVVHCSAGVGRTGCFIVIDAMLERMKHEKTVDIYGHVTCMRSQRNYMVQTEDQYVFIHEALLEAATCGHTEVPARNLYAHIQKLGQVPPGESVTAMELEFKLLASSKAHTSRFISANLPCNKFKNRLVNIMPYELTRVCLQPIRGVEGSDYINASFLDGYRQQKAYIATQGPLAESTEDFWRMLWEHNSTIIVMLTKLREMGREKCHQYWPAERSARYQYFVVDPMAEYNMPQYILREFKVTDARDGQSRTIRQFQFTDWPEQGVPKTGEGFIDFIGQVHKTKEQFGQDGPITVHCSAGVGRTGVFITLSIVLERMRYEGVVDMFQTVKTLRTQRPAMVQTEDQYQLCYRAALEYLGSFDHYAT
Sequence of Receptor-type tyrosine-protein phosphatase alpha (Homo sapiens) (P18433 20-802 limits assumed): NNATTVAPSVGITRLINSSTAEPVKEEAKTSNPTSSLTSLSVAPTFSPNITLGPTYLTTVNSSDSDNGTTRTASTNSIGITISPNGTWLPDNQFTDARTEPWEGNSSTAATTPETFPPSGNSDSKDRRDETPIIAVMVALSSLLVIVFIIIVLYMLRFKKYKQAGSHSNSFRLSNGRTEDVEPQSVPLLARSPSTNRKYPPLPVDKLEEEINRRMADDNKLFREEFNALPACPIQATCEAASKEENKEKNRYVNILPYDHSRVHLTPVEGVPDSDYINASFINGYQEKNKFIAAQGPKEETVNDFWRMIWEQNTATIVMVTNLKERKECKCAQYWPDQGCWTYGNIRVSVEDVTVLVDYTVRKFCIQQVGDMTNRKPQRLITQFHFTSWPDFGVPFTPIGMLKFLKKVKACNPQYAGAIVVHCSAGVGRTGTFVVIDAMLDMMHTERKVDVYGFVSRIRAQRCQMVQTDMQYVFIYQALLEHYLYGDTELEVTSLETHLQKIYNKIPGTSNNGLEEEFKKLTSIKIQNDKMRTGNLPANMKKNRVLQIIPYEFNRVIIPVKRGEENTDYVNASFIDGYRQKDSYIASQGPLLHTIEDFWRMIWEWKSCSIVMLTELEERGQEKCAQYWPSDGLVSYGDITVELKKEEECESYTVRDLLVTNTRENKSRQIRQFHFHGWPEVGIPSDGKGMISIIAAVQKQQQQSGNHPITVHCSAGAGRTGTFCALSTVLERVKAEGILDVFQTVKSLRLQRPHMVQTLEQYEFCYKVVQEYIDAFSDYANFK

IC50 [1]: 36.8 µM
IC50 [2]: 103 µM
IC50 [3]: 186 µM
Activity [4]: inactive
Activity [5]: inactive
IC50 [6]: 48 µM
IC50 [7]: 11.8 µM
IC50 [8]: 36 µM
IC50 [9]: 32.1 µM
IC50 [10]: 31.8 µM
Compound: O=C(CCCn1cc(-c2c(-c3ccccc3)oc3cc(O)c(C(=O)O)cc23)nn1)Nc1cccc2ccccc12
